In brackets after ≈: the same amount, converted by molar mass. Several values for one entry are separate records, joined by “and”; a condition that tells them apart may be missing. Equal values may be shown once. Read-outs that look alike come from different tables or passages of the source. Marks after values point to notes of the source that are not given here.
Key:
[1] = test system: Bacillus subtilis Presque Isle 620; assay: Frequency of occurrence of spontaneous resistant mutants; format: cell-based; details: 24 h
Procedure: Overnight cultures of S. aureus 29213, E. faecalis 29212, S. pneumoniae 6303 and Bacillus subtilis 620 were diluted to an OD625nm=0.08 0.1 ml of each preparation was spread onto agar plates containing four or eight times the broth macrodilution MIC of the androstane derivative. The starting inoculum for each organism was also diluted and plated onto drug-free plates for determination of CFU/ml. After a 24 h incubation at the appropriate temperature, the number of bacterial colonies on drug-supplemented agar was counted. The frequency of occurrence of spontaneous mutants was calculated by dividing the number of colonies on drug containing plates by the number of colonies in the inoculum. When no colonies were visualized on drug-containing plates, the calculation was (<) 1 colony divided by the number of colonies in the inoculum.

[2] = test system: Methicillin-resistant Staphylococcus aureus; assay: Broth macrodilution MIC and MBC, clinical isolates
[3] = test system: Klebsiella pneumoniae Presque Isle 344; assay: Disk diffusion susceptibility testing
[4] = test system: Vancomycin-resistant Enterococcus faecalis, clinical isolate; assay: Effect of pH on broth macrodilution MICs; format: cell-based
Nocardia asteroides = assay: Broth macrodilution MIC and MBC, clinical isolates; details: clinical isolate, 1 strain
Bacillus subtilis = assay: Broth macrodilution MIC and MBC, clinical isolates; details: 4 strains
Gordona bronchialis = assay: Broth macrodilution MIC and MBC, clinical isolates; details: clinical isolate, 1 strain
[5] = test system: Bacillus subtilis Presque Isle 620; assay: Broth macrodilution MIC and MBC, reference strains
[6] = test system: Corynebacterium hoagi ATCC 7005; assay: Broth macrodilution MIC and MBC, reference strains; details: ATCC7005
Invasive S. pneumoniae = assay: Broth macrodilution MIC and MBC, clinical isolates
S. saprophyticus = assay: Broth macrodilution MIC and MBC, clinical isolates; details: 3 strains
[7] = test system: ATCC 14154, mouse virulent Staphylococcus aureus; assay: Mouse model of topical Gram positive (Staphylococcus aureus) infection, infected suture; format: in vivo; details: mice; for Total colonies (number of Staph colonies per suture), individual animals: animals 1-10; for Total colonies (number of Staph colonies per suture), Ave.: average of 10 animals
Procedure: The model, as described in J. Gisby and J. Bryant, Antimicrobial Agents and Chemotherapy, February 2000, Vol. 44, No. 2, p 255-260, was used.
Fifty HSD:ICR male mice weighing 12-14 grams were ordered and allowed to acclimate 7 days. Mice were allocated to 5 groups of 10 animals each.
Group 1: infected suture placed, no treatment
Group 2: topical GRPB, 12.5 mg/kg BID×7 days
Group 3: topical GRPB, 25 mg/kg BID×7 days
Group 4: clean suture, no treatment
Group 5: enrofloxacin (Baytril) 10 mg/kg SQ SID×7 days
ATCC 14154, mouse virulent Staphylococcus aureus was grown in BHI broth overnight (12 hours) at 38 degrees C. Forty-five minutes prior to surgery, silk suture (2-0 size, 1 cm lengths w/swaged-on blunt needle) was soaked in the broth for 30 minutes, excess liquid was then removed by blotting with filter paper.
Mice were anesthetized with a ketamine (40 mg/kg), midazolam (2 mg/kg), and butorphanol (0.1 mg/kg) as a single IP injection.
The skin on the back of the mouse was prepared for aseptic surgery by clipping, cleansing with iodine scrub, and rinsing with alcohol. Mice were kept warm during surgery on a recirculating hot water blanket.
The suture was placed just under the skin on the dorsum of the animal using sterile instruments. The suture was knotted in the subcutaneous tissue to keep it in place. A half-thickness skin wound was made over the suture using the side of an 18 gauge needle as a scalpel.
Mice were allowed to recover in the home cage.
GRPB-10-15A was reconstituted as directed, using a minimal amount of methanol followed by dilution to required volume in sterile physiologic saline.
Injections were given using insulin syringes with 30 gauge needles. Topical administration was placed over the wound site. The mice were first treated 4 hours after surgery and were treated once or twice daily thereafter.
After 7 days of treatment animals were euthanized with IP pentobarbital euthanasia solution. The suture lengths were removed and placed in 2 mls phosphate buffered saline. Serial dilutions were performed and results reported as actual counts (number of Staph colonies per suture).

[8] = test system: Listeria monocytogenes, clinical isolate; assay: Effect of pH on broth macrodilution MICs; format: cell-based
[9] = test system: Vancomycin-resistant Enterococcus spp.; assay: Broth macrodilution MIC and MBC, clinical isolates
[10] = test system: Staphylococcus aureus 29213; assay: Time-kill studies; format: cell-based; details: S. aureus
Source text: (§1) This experiment illustrates a study of the time required (time-kill studies) for anti-microbial action of 3β-acetoxy-17β-(L-prolyl) amino-5α-androstane with certain gram positive bacteria.
(§2) Overnight cultures of Staphylococcus aureus 29213, Enterococcus faecalis 29212 and S. pneumoniae 6303 in MHII broth were inoculated into the same medium containing multiples of the broth macrodilution MIC of 3β-acetoxy-17β-(L-prolyl) amino-5α-androstane, or an equivalent volume of MeOH. Cultures were shaken at 37° C., and aliquots were aseptically removed at various times for dilution plating. Standard errors of the means were calculated from at least two experiments. The detection limit in these experiments was 10 CFU/ml.

[11] = test system: Enterococcus faecalis 29212; assay: Time-kill studies; format: cell-based; details: E. faecalis
Source text: as §1, §2

[12] = pH 6, range of 3 determinations
[13] = pH 8, range of 3 determinations
[14] = Group 2 low GRPB, topical 12.5 mg/kg BID×7 days
[15] = Group 3 high GRPB, topical 25 mg/kg BID×7 days

CC(=O)O[C@H]1CC[C@@]2(C)[C@@H](CC[C@@H]3[C@@H]2CC[C@]2(C)[C@@H](NC(=O)[C@@H]4CCCN4)CC[C@@H]32)C1
Frequency at 4X MIC ([1]; agar with 4X broth macrodilution MIC): <2.2 × 10^−7
Frequency at 8X MIC ([1]; agar with 8X broth macrodilution MIC): <2.2 × 10^−7
MIC50 ([2]; Staphylococcus aureus): 8 µg/mL (≈ 18.6 µM)
MIC90 ([2]; Staphylococcus aureus): 8 µg/mL (≈ 18.6 µM)
MBC ([2]; Staphylococcus aureus, read-out: MBC 50%): 16 µg/mL (≈ 37.2 µM)
MBC ([2]; Staphylococcus aureus, read-out: MBC 90%): > 64 µg/mL
MIC Range ([2]; clinical isolates, 22 strains): 4 to 8 µg/mL
share of strains with MBC/MIC ratios ≦2 ([2]; methicillin-resistant S. aureus): 73%
MIC [3]: >100 μg/disk
MIC Range [4, 12]: 32 µg/mL (≈ 74.3 µM)
MIC Range ([4]; pH 7, range of 3 determinations): 8 µg/mL (≈ 18.6 µM)
MIC Range [4, 13]: 4 to 8 µg/mL
MBC Range (Nocardia asteroides): 32 µg/mL (≈ 74.3 µM)
MIC Range (Nocardia asteroides): 8 µg/mL (≈ 18.6 µM)
MIC Range (Bacillus subtilis): 8 µg/mL (≈ 18.6 µM)
MBC Range (Gordona bronchialis): 8 µg/mL (≈ 18.6 µM)
MIC Range (Gordona bronchialis): 8 µg/mL (≈ 18.6 µM)
MBC [5]: 4 µg/mL (≈ 9.29 µM)
MIC [5]: 4 µg/mL (≈ 9.29 µM)
MBC [6]: 32 µg/mL (≈ 74.3 µM)
MIC [6]: 8 µg/mL (≈ 18.6 µM)
MIC50 (Invasive S. pneumoniae; Streptococcus pneumoniae): 8 µg/mL (≈ 18.6 µM)
MBC Range (Invasive S. pneumoniae; clinical isolates, 15 strains): 8 to 64 µg/mL
share of strains with MBC/MIC ratios ≦2 (Invasive S. pneumoniae; invasive S. pneumoniae): 93%
MBC Range (S. saprophyticus): 8 µg/mL (≈ 18.6 µM)
MIC Range (S. saprophyticus): 4 to 8 µg/mL
Total colonies (number of Staph colonies per suture), individual animals [7, 14]: 227 colonies per suture and 1993 colonies per suture and 832 colonies per suture and 317 colonies per suture and 1174 colonies per suture and 399 colonies per suture and 2523 colonies per suture and 968 colonies per suture and 739 colonies per suture and 1109 colonies per suture
Total colonies (number of Staph colonies per suture), Ave. [7, 14]: 1028 colonies per suture
Total colonies (number of Staph colonies per suture), individual animals [7, 15]: 890* colonies per suture and 328 colonies per suture and 483 colonies per suture and 289 colonies per suture and 626 colonies per suture and 572 colonies per suture and 456 colonies per suture and 344 colonies per suture and 565 colonies per suture and 362 colonies per suture
Total colonies (number of Staph colonies per suture), Ave. [7, 15]: 492 colonies per suture
MIC Range [8, 12]: 32 µg/mL (≈ 74.3 µM)
MIC Range [8, 13]: 16 µg/mL (≈ 37.2 µM)
MIC50 ([9]; Enterococcus): 8 µg/mL (≈ 18.6 µM)
MIC90 ([9]; Enterococcus): 16 µg/mL (≈ 37.2 µM)
MBC ([9]; Enterococcus, read-out: MBC 50%): 16 µg/mL (≈ 37.2 µM)
MBC ([9]; Enterococcus, read-out: MBC 90%): > 64 µg/mL
MIC Range ([9]; clinical isolates, 34 strains): 4 to 16 µg/mL
share of strains with MBC/MIC ratios ≦2 ([9]; vancomycin-resistant Enterococcus spp.): 59%
Killing (time dependence) [10]: time-dependent
Killing (time dependence) [11]: time-dependent
time to 99.9% kill ([11]; eight times the MIC): 4 h
survivors after 24 h ([11]; eight times the MIC): no survivors
time to 99.9% kill ([11]; four times the MIC): 8 h
survivors after 24 h ([11]; four times the MIC): no survivors
time to 99.9% kill ([11]; two times the MIC): 8 h

Source: patent US20030216361A1, “Therapeutic compositions effective against gram positive bacteria” (priority 2000, published 2003)
